Test results published in PubChem BioAssay (NCI).
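Cultured in 96-well plates, cells were exposed to test compound for 48 hours across five concentrations. TGI denotes the concentration required for complete inhibition of growth.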 Where a SMILES comes first, the peptide text is derived from it. The star is where a group is joined. Boc = CC(C)(C)OC(=O)*

Key:
Assay in all cases: growth of human tumour cells (NCI), 48 h
[1] = test system: OVCAR-5 ovarian
[2] = test system: IGROV1 ovarian
[3] = test system: OVCAR-3 ovarian
[4] = test system: KM12 colon
[5] = test system: CCRF-CEM leukemia
[6] = test system: UACC-62 melanoma
[7] = test system: SN12C renal
[8] = test system: HS 578T breast
[9] = test system: 786-0 renal
[10] = test system: SK-OV-3 ovarian
[11] = test system: BT-549 breast
[12] = test system: OVCAR-4 ovarian
[13] = test system: COLO 205 colon
[14] = test system: MDA-MB-231 breast

Row | SMILES | TGI [1] [µM] | TGI [2] [µM] | TGI [3] [µM] | TGI [4] [µM] | TGI [5] [µM] | TGI [6] [µM] | TGI [7] [µM] | TGI [8] [µM] | TGI [9] [µM] | TGI [10] [µM] | TGI [11] [µM] | TGI [12] [µM] | TGI [13] [µM] | TGI [14] [µM]
1 | COc1ccc2nc3c(C)cc4ccccc4n3c2c1 | > 100 | > 100 | > 100 | > 100 | > 100 | > 100 | > 100 | 79.3 | > 100 | > 100 | > 100 | – | – | –
2 | CCC(=O)N(c1ccccc1)C(C)CN1CCC(O)(c2cccc(C(F)(F)F)c2)CC1 (stereo not drawn) | 55.4 | > 100 | > 100 | > 100 | 50.1 | 49.1 | > 100 | 99.7 | 40.1 | > 100 | – | > 100 | 28.5 | 44.7
3 | O=[N+]([O-])c1cnc(N(CCO)CCO)s1 | > 100 | > 100 | > 100 | > 100 | > 100 | > 100 | > 100 | – | > 100 | > 100 | – | > 100 | > 100 | > 100
4 | Cc1cc(O)c2c(c1)C(C1OC(CO)C(O)C(O)C1O)c1cc(O)cc(O)c1C2=O (stereo not drawn) | > 100 | > 100 | > 100 | – | > 100 | > 100 | > 100 | – | > 100 | > 100 | > 100 | > 100 | > 100 | > 100
5 | CC(NC(=O)C1CCCN1C(=O)CNC(=O)OC(C)(C)C)C(=O)O (stereo not drawn) (Boc-Gly-Pro-Ala-OH; configuration not given here) | > 100 | > 100 | > 100 | > 100 | – | > 100 | > 100 | > 100 | > 100 | > 100 | > 100 | – | > 100 | > 100
6 | CCOC(CN(C)C(=O)Nc1ccc(Cl)c(Cl)c1)OCC | – | > 10 | > 10 | > 10 | > 10 | > 10 | > 10 | > 10 | > 10 | > 10 | – | > 10 | > 10 | > 10
7 | CC1OC(OC2C(OC(=O)[C@]34CCC(C)(C)CC3C3=CCC5[C@@]6(C)C[C@H](O)[C@H](OC7OC(COC8OC(CO)C(O)C(O)C8O)C(O)C(O)C7O)[C@@](C)(C(=O)O)C6CC[C@@]5(C)C3(C)CC4)OCC(O)C2O)C(O)C(O)C1OC1OCC(O)C(O)C1O (stereo partly drawn) | > 100 | > 100 | > 100 | > 100 | > 100 | > 100 | > 100 | – | > 100 | > 100 | – | – | > 100 | –
8 | CO[C@H](C(=O)O[C@H]1C(=O)N2CC[C@@H]3CCC[C@H]1C32C)c1ccccc1 (stereo partly drawn) | > 100 | > 100 | > 100 | > 100 | > 100 | > 100 | > 100 | – | > 100 | > 100 | – | > 100 | > 100 | –
9 | N#Cc1sc2c(c1OC(=O)c1ccc(Cl)cc1)c(=O)n(-c1ccccc1)c(=S)n2-c1ccccc1 | 68.2 | 40.5 | 64.2 | 32.5 | 31.2 | 35.6 | 54 | 56.2 | 63.6 | 91.4 | – | 76.7 | 38.1 | 97
10 | O=C(O)CCNc1ncc2c(n1)-c1ccccc1OC2 | > 100 | > 100 | > 100 | > 100 | > 100 | > 100 | > 100 | > 100 | > 100 | > 100 | – | > 100 | > 100 | > 100
11 | COc1ccc(/C=C2\C[C@H]3[C@@H]4CC=C5C[C@@H](OC(C)=O)CC[C@]5(C)[C@H]4CC[C@]3(C)C2=O)cc1OC | > 100 | > 100 | > 100 | > 100 | > 100 | > 100 | > 100 | > 100 | > 100 | – | > 100 | > 100 | > 100 | –
12 | COC(=O)CN=C1NC(=S)N(Cc2ccc(OC)cc2)C12CCCC2 | > 100 | – | > 100 | > 100 | > 100 | > 100 | > 100 | – | > 100 | > 100 | > 100 | > 100 | > 100 | > 100
13 | COC(=O)C1CC(c2ccc(Cl)cc2)=NO1 (stereo not drawn) | > 100 | > 100 | > 100 | > 100 | > 100 | > 100 | > 100 | – | > 100 | > 100 | – | > 100 | > 100 | –
14 | CC(NC(=O)C(N)CC(=O)O)C(=O)OC12CC3CC(CC(C3)C1)C2 (stereo not drawn) | > 100 | > 100 | – | > 100 | > 100 | > 100 | > 100 | > 100 | > 100 | > 100 | – | > 100 | > 100 | > 100
15 | O=c1ccn(Cc2ccccc2CCl)c(=O)[nH]1 | 37.4 | 55.3 | 42 | 83.3 | > 100 | 63.4 | 59.4 | 91.2 | 38 | > 100 | – | > 100 | 94.3 | –
16 | Cc1ccc(S(=O)(=O)NN=C2C(C)(C)CC2(C)C)cc1 | > 100 | > 100 | > 100 | > 100 | > 100 | > 100 | > 100 | > 100 | > 100 | > 100 | – | > 100 | > 100 | > 100
17 | COc1ccc(N=C(CS(=O)c2ccc(C)cc2)C(F)(F)F)cc1 (stereo not drawn) | > 100 | > 100 | > 100 | > 100 | > 100 | > 100 | > 100 | – | > 100 | > 100 | > 100 | > 100 | > 100 | > 100
18 | CN1C(=S)CSc2ccccc21 | > 100 | > 100 | > 100 | > 100 | > 100 | – | > 100 | – | > 100 | > 100 | – | > 100 | > 100 | –
19 | COc1ccc(C[n+]2cccc(O)c2)cc1 | > 100 | > 100 | > 100 | > 100 | > 100 | > 100 | > 100 | > 100 | > 100 | > 100 | > 100 | – | – | > 100
20 | CCOC(=O)NC(Nc1ccc(S(=O)(=O)Nc2ccc(OC)nn2)cc1)(C(F)(F)F)C(F)(F)F | > 100 | 54 | 55.7 | > 100 | 70.4 | > 100 | 83.9 | > 100 | 59 | > 100 | – | > 100 | 58.7 | 38.1
21 | O=c1oc2ccc3ccccc3c2cc1-c1nc(-c2ccc([N+](=O)[O-])cc2)n[nH]1 | > 100 | 51.8 | > 100 | > 100 | > 100 | > 100 | – | 45.6 | > 100 | 52.7 | 79.8 | > 100 | > 100 | –
22 | O=C1C(Cl)=C(N2CCN(CCOCCO)CC2)C(=O)c2ccccc21 | 37.4 | 28.6 | 9.44 | 31.6 | 7.27 | 13.7 | 28.8 | 39.2 | 24 | 28.9 | – | 6.26 | 28.7 | 17.9
23 | CSCCC(NC(=O)Cc1ccc(C(=O)c2ccccc2)cc1)C(=O)N1CCN(CCCCN2c3ccccc3Sc3cc(N=[N+]=[N-])ccc32)CC1 (stereo not drawn) | > 100 | > 100 | > 100 | > 100 | > 100 | > 100 | > 100 | – | > 100 | > 100 | > 100 | > 100 | > 100 | > 100
24 | CC(=O)c1cc2c(s1)C(=O)c1ccsc1C2=O | 2.03 | 3.4 | 0.729 | 3.11 | 1.3 | 0.688 | 0.352 | 0.561 | 4.16 | 5.38 | 0.356 | 2.56 | 40.5 | –
25 | O=C1C[C@@H]2[C@@H](CCC23CCCC3)N1 | > 100 | > 100 | > 100 | > 100 | > 100 | > 100 | > 100 | – | > 100 | > 100 | – | > 100 | > 100 | –
26 | C=CCOC1CC(n2cnc3c(N)ncnc32)OC1CO (stereo not drawn) | > 100 | > 100 | > 100 | > 100 | > 100 | > 100 | – | – | > 100 | – | – | > 100 | > 100 | –
27 | CC(C)(C)C(O)CC(O)(C(F)(F)F)C(F)(F)F (stereo not drawn) | > 100 | > 100 | > 100 | > 100 | > 100 | > 100 | > 100 | > 100 | > 100 | > 100 | – | > 100 | > 100 | > 100
